What was measured:
hM4Di = molecular target: T1, hM4Di (Homo sapiens, UniProt P08173, A203G/Y113C); test: VIPen inhibition with inhibitory DREADD (hM4Di), 24 h; type: in vivo, mice; details: versus vehicle
T1 construct: host or cells: VIP-producing enteric neurons of Vip-IRES-Cre x hM4Di fl-stop-fl transgenic mice (in vivo)
T1 sequence (P08173 1-479 Y113C/A203G): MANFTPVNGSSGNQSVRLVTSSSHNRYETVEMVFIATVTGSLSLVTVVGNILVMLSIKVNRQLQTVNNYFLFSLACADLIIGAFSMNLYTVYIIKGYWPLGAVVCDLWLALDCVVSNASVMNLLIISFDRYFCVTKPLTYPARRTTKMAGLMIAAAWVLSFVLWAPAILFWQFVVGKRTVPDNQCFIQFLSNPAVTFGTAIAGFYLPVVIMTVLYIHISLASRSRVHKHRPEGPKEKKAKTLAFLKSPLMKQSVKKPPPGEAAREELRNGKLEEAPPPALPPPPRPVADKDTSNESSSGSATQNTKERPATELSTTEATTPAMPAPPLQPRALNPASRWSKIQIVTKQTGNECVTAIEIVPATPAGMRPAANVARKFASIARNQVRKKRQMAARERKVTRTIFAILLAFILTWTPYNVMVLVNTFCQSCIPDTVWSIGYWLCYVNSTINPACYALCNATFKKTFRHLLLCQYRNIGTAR
Description: (§1) To perform chemogenetic activation or inhibition of VIPen, we bred VIP^IRES-Cre homozygous mice to hM3Dq^fl-stop-fl mice (DREADD for activation) or hM4Di^fl-stop-fl bp-mice (DREADD for inhibition), generating VIP^IRES-Cre hM3Dq^fl-stop-fl (VIPen activation) and VIP^IRES-Cre hM3Dq^fl-stop-flhM4Di^fl-stop-fl mice (VIPen inhibition). To perform 24 h activation of the DREADDs, mice were treated with Clozapine-N-Oxide (CNO, 1 mg/Kg intraperitoneally, TOCRIS) each 12 h. […] To perform activation of the DREADDs during Citrobacter rodentium infection, mice were treated daily with CNO (1 mg/Kg, intraperitoneally) from day 1 to day 4 after infection. […]
(§2) Live/dead fixable blue (ThermoFisher) or DAPI (ThermoFisher) were used to exclude dead cells. […] Flow cytometric analysis was performed on an LSR II (BD Biosciences) or an Aria II (BD Biosciences) and analyzed using FlowJo software version 10 (Tree Star).
(§3) TRNA isolation of ileal epithelial cells was performed using TRIzol following manufacturer's instructions (Invitrogen) followed by DNase I (Qiagen) treatment and cleanup with RNeasy MinElute kit (Qiagen) following manufacturer protocols. cDNA was generated using SuperScript™ IV First-Strand Synthesis System (ThermoFisher). […] Quantitative PCR was performed using the Hot Start-IT SYBRGreen (Affymetrix) on the Roche real-time PCR system (Roche 480). […]

hM3Dq = molecular target: T2, hM3Dq (Homo sapiens, UniProt P20309, A239G/Y149C); test: VIPen activation with activating DREADD (hM3Dq), 24 h; type: in vivo, mice; details: following VIPen activation, versus vehicle
T2 construct: host or cells: VIP-producing enteric neurons of Vip-IRES-Cre x hM3Dq fl-stop-fl transgenic mice (in vivo)
Description: as §1, §2, §3

C. rodentium [1] = test: C. rodentium infection of Vip-IRES-Cre hM3Dq mice (VIPen activation); type: in vivo, Citrobacter rodentium; details: for bacterial dissemination (translocation) induced by VIPen activation / mortality induced by VIPen activation: 250 pg/mouse/day, C. rodentium-infected hM3Dq mice with VIPen activation
Description: (§4) To perform chemogenetic activation or inhibition of VIPen, we bred VIP^IRES-Cre homozygous mice to hM3Dq^fl-stop-fl mice (DREADD for activation) or hM4Di^fl-stop-fl bp-mice (DREADD for inhibition), generating VIP^IRES-Cre hM3Dq^fl-stop-fl (VIPen activation) and VIP^IRES-Cre hM3Dq^fl-stop-flhM4Di^fl-stop-fl mice (VIPen inhibition). To perform 24 h activation of the DREADDs, mice were treated with Clozapine-N-Oxide (CNO, 1 mg/Kg intraperitoneally, TOCRIS) each 12 h. […] To perform activation of the DREADDs during Citrobacter rodentium infection, mice were treated daily with CNO (1 mg/Kg, intraperitoneally) from day 1 to day 4 after infection.
(§5) C. rodentium strain DBS100 (ATCC51459; American Type Culture Collection) was grown at 37° C. in LB broth to OD600 reading between 0.5 and 0.7. VIP^IRES-CrehM3Dq^fl-stop-fl (VIPen activation) and C57BL/6 mice were inoculated with 200 μl of a bacterial suspension (2×10^9 CFU) by oral gavage. VIP^IRES-Cre hM3Dq^fl-stop-flhM4Di^fl-stop-fl mice (VIPen inhibition) were inoculated with 200 μl of a bacterial suspension (4×10^10 CFU) by oral gavage. For DREADD experiments, CNO treatment started at 1 day post-infection (d.p.i.) until 4 d.p.i. Mice were followed the next 12 days post-infection (d.p.i.) to measure survival rate. At 9 d.p.i. fecal pellets were collected and the mice dissected to harvest spleen and liver. Samples were weighted and minced on sterile deionized water with Triton 0.1% and filtered on a 70 μm cell strainer. The filtered samples were used to measure C. rodentium burden with serial dilutions (triplicates) on MacConkey agar plates.

C. rodentium [2] = test: C. rodentium infection of Vip-IRES-Cre hM4Di mice (VIPen inhibition); type: in vivo, Citrobacter rodentium; details: 1 mg/Kg daily 1-4 d.p.i., 4×10^10 CFU, 9 d.p.i., mice positive/total
Description: as §4
as §5, with “Samples were weighted and minced on sterile deionized water with Triton 0.1% and filtered on a 70 μm cell strainer. The filtered samples were used to measure C. rodentium burden with serial dilutions (triplicates) on MacConkey agar plates.” left out

ILC3 = test: Pilot experiments with CNO in C57BL/6 mice; type: in vivo; details: 1 mg/Kg intraperitoneally each 12 h, C57BL/6 mice without DREADD, data not shown
VIPR2 = molecular target: T3, VIPR2 (Mus musculus, UniProt P41588); test: ILC3 in vitro cell culture with VIPR2 ligands, IL-22 and Sca-1 by flow cytometry; type: cell-based, mice; details: IL-23 100 pg/mL, 12 h, different concentrations of ligand
T3 construct: endogenous in cells; host or cells: primary CCR6+ ILC3 sorted from small-intestine lamina propria of C57BL/6 mice
T3 sequence (P41588 23-437): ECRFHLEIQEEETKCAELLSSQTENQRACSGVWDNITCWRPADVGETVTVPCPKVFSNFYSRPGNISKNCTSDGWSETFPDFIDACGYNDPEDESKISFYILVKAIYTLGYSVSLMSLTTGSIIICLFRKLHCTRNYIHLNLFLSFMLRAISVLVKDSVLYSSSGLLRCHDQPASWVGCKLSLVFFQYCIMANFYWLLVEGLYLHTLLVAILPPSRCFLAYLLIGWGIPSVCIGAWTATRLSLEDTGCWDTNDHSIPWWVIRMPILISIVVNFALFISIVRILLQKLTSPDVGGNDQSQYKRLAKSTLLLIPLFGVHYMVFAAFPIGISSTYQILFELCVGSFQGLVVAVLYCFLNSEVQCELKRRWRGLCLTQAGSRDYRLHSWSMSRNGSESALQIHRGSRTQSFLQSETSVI
Description: CCR6^+ and CCR6^neg ILC3 (DAPI^negCD3^negCD11c^negCD14^negCD19^negTCRβ^negTCRγ^negNK1.19KLRG1^negCD127^+CD90.2^+) were isolated from small intestine LPLs of C57BL/6 mice using the ARIA II FACS Sorter (BD Biosciences). ILC3 were cultured at 37° C. in flat bottom 96 well plates (10^4 cells/well) in RPMI supplemented with 10% heat-inactivated FBS (Hyclone), 50 U penicillin-streptomycin (Hyclone), 2 mM glutamine (Hyclone), 10 mM HEPES (Hyclone), 1 mM sodium pyruvate (Hyclone) and 50 μM β-mercaptoethanol (Gibco). ILC3 were stimulated with IL-23 (100 pg/mL, R&D systems) and/or VIPR2 ligands (BAY-559837: 1-100 nM, and VIP: 1 nM, […]), washed, incubated in complete media in the presence of Golgi Plug (BD Bioscience) for 4 h (37° C.), and stained for membrane extracellular markers in Staining Buffer (PBS FBS2% EDTA 5 mM) and for intracellular markers using Cytofix/Cytoperm buffer set following manufacturer's protocol (BD Biosciences). Acquisition of cytometric parameters was performed on an LSRII (BD Biosciences). All data were analyzed using FlowJo Software Version 10 (Tree Star).
as §2

[3] = 1 mg/Kg daily 1-4 d.p.i., 2×10^9 CFU, 9 d.p.i., mice positive/total
[4] = listed as recombinant murine IL-22

T2 sequence (P20309 whole entry Y149C/A239G): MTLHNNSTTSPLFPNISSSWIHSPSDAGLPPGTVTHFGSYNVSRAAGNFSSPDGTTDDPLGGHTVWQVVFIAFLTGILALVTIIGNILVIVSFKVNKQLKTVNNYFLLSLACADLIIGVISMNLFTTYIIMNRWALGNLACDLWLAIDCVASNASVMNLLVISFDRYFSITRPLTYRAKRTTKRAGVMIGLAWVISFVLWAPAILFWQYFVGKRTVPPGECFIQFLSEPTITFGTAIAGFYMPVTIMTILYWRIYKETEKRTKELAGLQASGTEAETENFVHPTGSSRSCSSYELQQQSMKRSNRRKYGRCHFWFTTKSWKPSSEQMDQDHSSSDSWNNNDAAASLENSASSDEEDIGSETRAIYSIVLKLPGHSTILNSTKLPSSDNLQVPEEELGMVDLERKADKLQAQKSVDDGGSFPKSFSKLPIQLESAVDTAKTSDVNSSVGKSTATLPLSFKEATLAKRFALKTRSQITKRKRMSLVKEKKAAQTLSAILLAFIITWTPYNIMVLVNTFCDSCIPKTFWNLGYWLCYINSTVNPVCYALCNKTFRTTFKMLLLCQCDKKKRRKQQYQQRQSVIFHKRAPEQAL

C[N+]1([O-])CCN(C2=Nc3cc(Cl)ccc3Nc3ccccc32)CC1 [CNO, Clozapine-N-oxide]
RegIIIγ mRNA expression in the IECs (hM4Di; after VIPen inhibition, 24 h): increased | frequency of IL-22-producing CCR6+ ILC3 (hM4Di; ileum, 24 h following VIPen inhibition): higher frequency | IL-22+ cells among the CCR6+ ILC3 (hM3Dq): fewer | RegIIIγ mRNA in IECs (hM3Dq): lower | Positive for C. rodentium: liver (C. rodentium [1]; [3]): 9/9 | Positive for C. rodentium: spleen (C. rodentium [1]; [3]): 9/9 | Positive for C. rodentium: liver (C. rodentium [2]): 1/7 | Positive for C. rodentium: spleen (C. rodentium [2]): 1/7 | ILC3 function (ILC3): does not affect

vasoactive intestinal peptide [VIP]
IL-23-induced Sca-1 expression on CCR6+ ILC3 (VIPR2): does not modulate

B1: rmIL-22: recombinant murine IL-22 (protein, UniProt Q9JJY9 34-179, looked up)
Interleukin-22: LPVNTRCKLEVSNFQQPYIVNRTFMLAKEASLADNNTDVRLIGEKLFRGVSAKDQCYLMKQVLNFTLEDVLLPQSDRFQPYMQEVVPFLTKLSNQLSSCHISGDDQNIQKNVRRLKETVKKLGESGEIKAIGELDLLFMSLRNACV
bacterial dissemination (translocation) induced by VIPen activation (C. rodentium [1]): protects against increase | mortality induced by VIPen activation (C. rodentium [1]): protects against increase | bacterial dissemination (translocation) induced by VIPen activation (C. rodentium [1]; [4]): reversed the effect | mortality induced by VIPen activation (C. rodentium [1]; [4]): reversed the effect
